Measurements from ChEMBL document CHEMBL3046890, “Synthesis and Herbicidal Activity of Sulfonylureas; SL-950 and Its Related Compounds” (1995).

Key:
Format in all cases: functional
Echinochloa crus-galli = test: Post emergence herbicidal activity against three-leaf stage Echinochloa crus-galli (barnyard grass) assessed as efficacy of weed growth control at 40 g ai/ha under greenhouse conditions
Setaria viridis = test: Post-emergence herbicidal activity against two-leaf stage Setaria viridis (green foxtail) assessed as efficacy of weed growth control at 60 g ai/ha under greenhouse conditions
Abutilon theophrasti [1] = test: Post-emergence herbicidal activity against one-leaf stage Abutilon theophrasti (velvetleaf) assessed as efficacy of weed growth control at 60 g ai/ha under greenhouse conditions
Solanum nigrum = test: Post emergence herbicidal activity against four-leaf stage Solanum nigrum (black nightshade) assessed as efficacy of weed growth control at 60 g ai/ha under greenhouse conditions
Abutilon theophrasti [2] = test: Post-emergence herbicidal activity against one-leaf stage Abutilon theophrasti (velvetleaf) assessed as efficacy of weed growth control at 40 g ai/ha under greenhouse conditions
Commelina communis = test: Post emergence herbicidal activity against two-leaf stage Commelina communis (Asiatic dayflower) assessed as efficacy of weed growth control at 40 g ai/ha under greenhouse conditions
Persicaria longiseta = test: Post-emergence herbicidal activity against Persicaria longiseta assessed as inhibition of weed growth at 125 g ai/ha measured 22 to 37 days after compound application under greenhouse conditions; conditions: read-out: GI
Eleusine indica = test: Post emergence herbicidal activity against three-leaf stage Eleusine indica assessed as efficacy of weed growth control at 750 g ai/ha under greenhouse conditions

Compound: COc1cc(OC)nc(NC(=O)NS(=O)(=O)c2ncccc2C(=O)N(C)C)n1 [NICOSULFURON]
- Efficacy (Echinochloa crus-galli): 95%
- Efficacy (Setaria viridis): 95%
- Efficacy (Abutilon theophrasti [1]): 50%
- Efficacy (Solanum nigrum): 50%
- Efficacy (Abutilon theophrasti [2]): 50%
- Efficacy (Commelina communis): 70%
- inhibition of growth at 125 g/ha (Persicaria longiseta): 100%
- Efficacy (Eleusine indica): <50%
